From patent US8303960B2, “Radiolabeled affibody molecules” (The United States of America, as represented by the …, priority 2007, dated 2012)
Several values for one entry are separate records, joined by “and”; a condition that tells them apart may be missing. Equal values may be shown once.

Assays:
Type in all cases: in vivo, mice
HER2 [1] = experiment: Ex-vivo western blot of tumor tissue lysates after 17-DMAG treatment; conditions: for HER2 western blot signal, fraction of control lane (in parentheses): lane (3) relative to lane (1); for HER2 western blot, mean intensity of the signal: after 17-DMAG
Method: (§1) Mice bearing BT-474 or MCF7/clone18 subcutaneous tumors are treated with two doses (30-50 mg/kg, 12 or 24 h apart) of 17-DMAG. Animals (n=4-6) are scanned before, 36 h, and 84 h after the treatment. Immediately after the last scan, the animals are euthanized, and the tumors are frozen for further analysis. HER2 expression in the tumors is then measured ex-vivo by western blot (Table 2) and ELISA (Table 3).

HER2 [2] = experiment: Ex-vivo ELISA of tumor tissue lysates after 17-DMAG treatment
Method: as §1

HER2 [3] = experiment: PET imaging of ^18F-ZHER2-affibody tumor uptake before and after 17-DMAG; conditions: 84 h post-treatment; BT-474 and MCF7/clone 18 tumors
Method: as §1, with “3). In animals treated with 17-DMAG, the accumulation of radioactivity estimated by PET imaging decreases 50-70% at 84 h post-treatment (FIGS. 11 and 12). This change is confirmed by the biodistribution studies, see, e.g., FIG. 13.” for “3).”

In the case of CO[C@H]1/C=C\C=C(/C)C(=O)NC2=CC(=O)C(NCCN(C)C)=C(C[C@@H](C)C[C@H](OC)[C@H](O)[C@@H](C)/C=C(\C)[C@@H]1OC(N)=O)C2=O [17-DMAG, 17-dimethylaminoethylamino-17-demethoxygeldanamycin], the “HER2 western blot signal, fraction of control lane (in parentheses)” value (HER2 [1]; dry transfer) is reported as “(0.36)”, the “HER2 western blot, mean intensity of the signal” value (HER2 [1]; dry transfer, lane (3)) is reported as 43.24 DU and the “HER2 western blot, mean intensity of the signal” value (HER2 [1]; dry transfer, lanes (5) and (6)) is reported as 99.85 DU and 88.68 DU. The “decrease of HER2 expression” value (HER2 [1]; ex vivo analysis of tumor samples by western blots and ELISA) was 50-70%, the “HER2 western blot signal, fraction of control lane (in parentheses)” value (HER2 [1]; wet transfer) was “(0.34)” and the “HER2 western blot, mean intensity of the signal” value (HER2 [1]; wet transfer, lane (3)) was 83.08 DU. For the same molecule, the “HER2 western blot, mean intensity of the signal” value (HER2 [1]; wet transfer, lanes (5) and (6)) was 187.69 DU and 156.39 DU, the “HER2 in tissue lysate (ELISA)” value (HER2 [2]; BT-474 tumor after 17-DMAG, Trial 1) was 541.41 fmol/mg protein and the “HER2 in tissue lysate (ELISA)” value (HER2 [2]; BT-474 tumor after 17-DMAG, Trial 2) was 504.86 fmol/mg protein. For the same molecule, the “HER2 (ELISA), fraction of untreated control (in parentheses)” value (“HER2 (ELISA), fraction” below) (HER2 [2]; BT-474 tumor, Trial 1) was “(0.35)”, the “HER2 (ELISA), fraction” value (HER2 [2]; BT-474 tumor, Trial 2) was “(0.30)” and the “HER2 in tissue lysate (ELISA)” value (HER2 [2]; MCF7/clone 18 tumor after 17-DMAG, Trial 1) was 602.19 fmol/mg protein. The “HER2 in tissue lysate (ELISA)” value (HER2 [2]; MCF7/clone 18 tumor after 17-DMAG, Trial 2) was 516.77 fmol/mg protein, the “HER2 (ELISA), fraction” value (HER2 [2]; MCF7/clone 18 tumor, Trial 1) was “(0.43)” and the “HER2 (ELISA), fraction” value (HER2 [2]; MCF7/clone 18 tumor, Trial 2) was “(0.36)”. The “decrease of accumulation of radioactivity estimated by PET imaging” value (HER2 [3]) was 50-70%.
